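These data come from cells grown in 96-well plates and exposed to compound for 48 hours at five concentrations. GI50 is the concentration that inhibits growth by half. TGI marks complete inhibition of growth.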
Experiments:
Test in all cases: NCI anticancer screen, dose series, 48 h
A549 NSCLC = test system: A549 NSCLC
ACHN renal = test system: ACHN renal
KM12 colon = test system: KM12 colon
NCI-H23 lung = test system: NCI-H23 lung
OVCAR-4 ovarian = test system: OVCAR-4 ovarian
OVCAR-5 ovarian = test system: OVCAR-5 ovarian
U251 CNS = test system: U251 CNS
HOP-92 NSCLC = test system: HOP-92 NSCLC
NCI-H226 lung = test system: NCI-H226 lung

SMILES | TGI (A549 NSCLC) [µM] | TGI (ACHN renal) [µM] | TGI (KM12 colon) [µM] | TGI (NCI-H23 lung) [µM] | TGI (OVCAR-4 ovarian) [µM] | TGI (OVCAR-5 ovarian) [µM] | TGI (U251 CNS) [µM] | GI50 (A549 NSCLC) [µM] | GI50 (ACHN renal) [µM] | GI50 (HOP-92 NSCLC) [µM] | TGI (HOP-92 NSCLC) [µM] | GI50 (KM12 colon) [µM] | GI50 (NCI-H226 lung) [µM] | TGI (NCI-H226 lung) [µM] | GI50 (OVCAR-5 ovarian) [µM] | GI50 (U251 CNS) [µM] | GI50 (NCI-H23 lung) [µM] | GI50 (OVCAR-4 ovarian) [µM]
CCCCCC/C=C/CCCCCCCc1cccc(O)c1C(=O)O | > 100 | > 100 | > 100 | > 100 | > 100 | > 100 | 88.2 | – | – | – | – | – | – | – | – | – | – | –
CCC[CH2][Sn]1([CH2]CCC)[O]CC([CH2][Sn]([c]2ccccc2)([c]2ccccc2)[c]2ccccc2)[O]1 (centres undefined) | 31.4 | 32.5 | 25.3 | – | – | 31 | 19.9 | 16.5 | 17 | 11.9 | 25.7 | 12.2 | 20.7 | 38.8 | 17 | 6.5 | – | –
CC(=O)Oc1cc(OC(C)=O)c2cc3c(cc2c1OC(C)=O)C(=O)C1(CCCC1)C3=O | 40.4 | 31.5 | – | 34.1 | 33 | – | 32.3 | – | – | – | 28.6 | – | – | – | – | – | – | –
Cn1c(=O)c2[nH]cnc2n(CC(=O)O)c1=O | > 100 | > 100 | > 100 | > 100 | – | > 100 | > 100 | – | – | – | > 100 | – | – | > 100 | – | – | – | –
CN(Cc1ccccc1)c1nc(=[N+](C)C)ss1 | > 100 | > 100 | > 100 | > 100 | > 100 | > 100 | > 100 | – | – | – | > 100 | – | – | > 100 | – | – | – | –
C[C@@]1(CBr)C[C@@](C)(/C=C/Cl)[C@@H](Cl)C[C@H]1Cl | 26.1 | 25.7 | 22.5 | 27.9 | 24.6 | 26.3 | 27.9 | – | – | – | 27.7 | – | – | 26.1 | – | – | – | –
CC(=O)[CH-]C(=O)c1ccccc1.CC(=O)[CH-]C(=O)c1ccccc1.CC12CC3(C)CC(C)(C1)CC([O-])(C2)C3.CC[O-].[Ti+4] | > 100 | > 100 | 35.2 | 34.4 | 53.3 | – | 27.9 | 29.5 | 38.7 | 19.1 | 55.3 | 18.3 | – | – | – | 13.5 | 18.1 | 17.9
CC(=O)NNc1nc(C)c(C(/C=C/c2ccc(Cl)cc2)=N/NC(=S)NN)s1 | > 100 | > 100 | > 100 | > 100 | > 100 | > 100 | > 100 | – | – | – | > 100 | – | – | > 100 | – | – | – | –
CC(=O)OC1C/C(C)=C/[C@H](O)CC(C)/C=C/[C@@]2(C)CCC(C(C)(C)O)C12 (some centres undefined) | > 100 | > 100 | > 100 | > 100 | > 100 | > 100 | > 100 | – | – | – | > 100 | – | – | > 100 | – | – | – | –
O=C(Nc1cc([N+](=O)[O-])cc([N+](=O)[O-])c1)OC1C2CCC1C1OC1C2 (centres undefined) | > 50 | > 50 | > 50 | > 50 | > 50 | > 50 | > 50 | – | – | – | > 50 | – | – | – | – | – | – | –
C[n+]1ccc2[nH]c3ccccc3c2c1 | > 100 | > 100 | > 100 | > 100 | > 100 | > 100 | > 100 | – | – | – | > 100 | – | – | > 100 | – | – | – | –
CN(/C(=N\O)c1ccccc1)c1ccccc1 | > 100 | – | > 100 | 61.2 | > 100 | > 100 | 37.6 | – | – | – | 62.5 | – | – | 60 | – | – | – | –
N#CNc1nc(C(=O)Nc2ccc(Cl)cc2)cc(-c2ccccc2)n1 | > 100 | > 100 | > 100 | > 100 | > 100 | > 100 | > 100 | – | – | – | > 100 | – | – | > 100 | – | – | – | –
CCN1CCC(O)(c2ccc(Cl)c(Cl)c2)C(C(=O)c2ccc(Cl)c(Cl)c2)C1 (centres undefined) | 40.7 | 28.3 | – | 36.3 | 32.6 | 35.7 | 35.9 | – | – | – | 29 | – | – | 40.1 | – | – | – | –
CC(=O)[CH-]C(=O)c1ccccc1.CC(=O)[CH-]C(=O)c1ccccc1.CC[O-].O=C1C=C([O-])C(=O)c2ccccc21.[Ti+4] | > 100 | > 100 | > 100 | > 100 | > 100 | > 100 | > 100 | 46.3 | 66.5 | 26.2 | 82.8 | 32.2 | 76 | > 100 | 95.3 | 32.4 | 10.8 | > 100
CCc1ccccc1NC(=O)C1=C(C)NC(C)=C(C(=O)Nc2ccccc2CC)C1c1ccc(NC(C)=O)cc1 | > 100 | > 100 | > 100 | > 100 | > 100 | > 100 | > 100 | – | – | – | 90.6 | – | – | > 100 | – | – | – | –
